# Patent US11607404B2, “Combinations of RAD51 and PARP inhibitors” (Cyteir Therapeutics, Inc., priority 2019, dated 2023)
# What was measured:
# [1] = test system: Daudi cell line (AID positive); experiment: Primary screening cell killing assay (Cell-Titer Glo, Day 7); type: cell-based; conditions: Homo sapiens, 168 h; Daudi cells (AID positive), cell death on Day 7; read-out: AID+ EC50
# Method in brief: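 Daudi cells (AID positive), 1250 per well, were treated with serially diluted compounds and incubated at 37° C. Viability was read by Cell-Titer Glo on Day 7. Percent cell death and EC50 came from media-subtracted RLU of treated wells relative to non-treated wells.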
# [2] = Human liver microsome stability; type: in vitro ADME; conditions: percentage of hepatic blood flow
# Procedure: The stability of the claimed compounds was determined in the presences of human liver microsomes. The compounds were incubated with the microsomes at 37° C. for 45 minutes. Samples were analyzed using LC-MS/MS. Data analysis included half-life, clearance rate, and the percentage of hepatic blood flow (% QH) for each of the compounds in the different species.
# J000100675 model = experiment: Tumor growth inhibition, subcutaneous engrafted tumor model; type: in vivo, mice; conditions: HRD Negative, RAD51 Low, BRCA WT, PALB2 WT, 67A 40 mg/kg QD, olaparib 50 mg/kg QD, combo both
# Procedure: (§1) Immunodeficient mice were subcutaneously engrafted in the rear flank with the tumor cells. The tumors were allowed to grow to a size of about 100 to about 200 mm^3 prior to being randomized and grouped into treatment arms. For models […] through […] the four treatment arms were vehicle, Compound 67A at 80 mg/kg QD, olaparib at 100 mg/kg QD, and Compound 67A+Olaparib at 80 mg/kg QD and 100 mg/kg QD, respectively. For models J000101173 through TM00091 the treatment arms were vehicle, Compound 67A at 40 mg/kg QD, olaparib at 50 mg/kg QD, and Compound 67A+Olaparib at 40 mg/kg QD and 50 mg/kg QD, respectively. The tumors were measured either once weekly or twice weekly.
# (§2) Percent Tumor Growth Inhibition (% TGI) was calculated by taking the mean volume of each of the treatment arms, and comparing the treatment arms to the vehicle arms using the following equation
# HBCx11 model = experiment: as above; type: in vivo, mice; conditions: HRD Positive, RAD51 High, BRCA1 Mut, PALB2 WT, 67A 80 mg/kg QD, olaparib 100 mg/kg QD, combo both
# Procedure: as §1, §2
# TM00096 model = experiment: as above; type: in vivo, mice; conditions: HRD Positive, RAD51 Low, BRCA WT, PALB2 WT, 67A 40 mg/kg QD, olaparib 50 mg/kg QD, combo both
# Procedure: as §1, §2
# HBCx27 model = experiment: as above; type: in vivo, mice; conditions: HRD Negative, RAD51 High, BRCA WT, PALB2 WT, 67A 80 mg/kg QD, olaparib 100 mg/kg QD, combo both
# Procedure: as §1, §2
# HBCx1 model = experiment: as above; type: in vivo, mice; conditions: HRD Positive, RAD51 High, BRCA WT, PALB2 WT, 67A 80 mg/kg QD, olaparib 100 mg/kg QD, combo both
# Procedure: as §1, §2
smiles,measurement,setting,value
"CC(C)OC(=O)Nc1ccc(-c2cnc([C@H]3CC[C@H](NC(=O)OC(C)C)CC3)s2)c(S(=O)(=O)NC(C)(C)C)c1 [Compound 67A, trans-isopropylN-[3-(tert-butylsulfamoyl)-4-[2-[4-(isopropoxycarbonylamino)cyclohexyl]thiazol-5-yl]phenyl]carbamate]",EC50,[1],≤ 1000 nM
same,Human Liver Microsome Stability % QH,[2],<20.3%
same,% TGI,J000100675 model,36.69%
same,% TGI,HBCx11 model,23.39%
same,% TGI,TM00096 model,−25.4%
same,% TGI,HBCx27 model,13.14%
same,% TGI,HBCx1 model,28.75%
